Laboratory results published in patent US11135234B2, “Effective aminoglycoside antibiotic for multidrug-resistant bacteria” (MICROBIAL CHEMISTRY RESEARCH FOUNDATION, priority 2015, dated 2021).
Converted amounts (≈) assume the structure as drawn.

Tests used:
[1] = test system: K. pneumoniae ATCC BAA-2146; assay: MIC, agar plate dilution method, K. pneumoniae ATCC BAA-2146; assay type: cell-based, Klebsiella pneumoniae; conditions: K. pneumoniae ATCC BAA-2146, NDM-producing strain
Summary of the method: (§1)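 Read-out is the lowest compound concentration inhibiting growth (MIC, μg/mL), obtained by the agar plate dilution procedure of the Japan Society of Chemotherapy.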

P. aeruginosa PAO1/GN315 = assay: MIC, agar plate dilution method, P. aeruginosa PAO1/GN315; assay type: cell-based, Pseudomonas aeruginosa; conditions: P. aeruginosa PAO1/GN315, AMK-resistant
Summary of the method: as §1

E. faecium ATCC19434 = assay: MIC, agar plate dilution method, E. faecium ATCC19434; assay type: cell-based, Enterococcus faecium; conditions: E. faecium ATCC19434
Summary of the method: as §1

P. aeruginosa MSC17707 = assay: MIC, agar plate dilution method, P. aeruginosa MSC17707; assay type: cell-based, Pseudomonas aeruginosa; conditions: P. aeruginosa MSC17707, AMK-resistant
Summary of the method: as §1

[2] = test system: K. pneumoniae ATCC BAA-1705; assay: MIC, agar plate dilution method, K. pneumoniae ATCC BAA-1705; assay type: cell-based, Klebsiella pneumoniae; conditions: K. pneumoniae ATCC BAA-1705, KPC-producing strain
Summary of the method: as §1

S. marcescens GN6944 = assay: MIC, agar plate dilution method, S. marcescens GN6944; assay type: cell-based, Serratia marcescens; conditions: S. marcescens GN6944, GM-resistant
Summary of the method: as §1

S. aureus MF490 = assay: MIC, agar plate dilution method, S. aureus MF490; assay type: cell-based, Staphylococcus aureus; conditions: S. aureus MF490, MRSA
Summary of the method: as §1

S. aureus RN4220 = assay: MIC, agar plate dilution method, S. aureus RN4220; assay type: cell-based, Staphylococcus aureus; conditions: S. aureus RN4220, Sensitive bacterium
Summary of the method: as §1

E. coli JM109/pMW218 = assay: MIC, agar plate dilution method, E. coli JM109/pMW218; assay type: cell-based, Escherichia coli; conditions: E. coli JM109/pMW218, Sensitive bacterium
Summary of the method: as §1

P. aeruginosa MSC01035 = assay: MIC, agar plate dilution method, P. aeruginosa MSC01035; assay type: cell-based, Pseudomonas aeruginosa; conditions: P. aeruginosa MSC01035, ABK-resistant
Summary of the method: as §1

P. aeruginosa PAO1 = assay: MIC, agar plate dilution method, P. aeruginosa PAO1; assay type: cell-based, Pseudomonas aeruginosa; conditions: P. aeruginosa PAO1, Sensitive bacterium
Summary of the method: as §1

S. marcescens TH-0447 = assay: MIC, agar plate dilution method, S. marcescens TH-0447; assay type: cell-based, Serratia marcescens; conditions: S. marcescens TH-0447, AMK-resistant
Summary of the method: as §1

[3] = test system: A. baumannii ATCC BAA-1710; assay: MIC, agar plate dilution method, A. baumannii ATCC BAA-1710; assay type: cell-based, Acinetobacter baumannii; conditions: A. baumannii ATCC BAA-1710, MDRA
Summary of the method: as §1

S. aureus RN4220/pMS520 = assay: MIC, agar plate dilution method, S. aureus RN4220/pMS520; assay type: cell-based, Staphylococcus aureus; conditions: S. aureus RN4220/pMS520, MRSA
Summary of the method: as §1

Row | SMILES | minimal inhibitory concentration (MIC) [1] [µg/mL] | minimal inhibitory concentration (MIC) (P. aeruginosa PAO1/GN315) [µg/mL] | minimal inhibitory concentration (MIC) (E. faecium ATCC19434) [µg/mL] | minimal inhibitory concentration (MIC) (P. aeruginosa MSC17707) [µg/mL] | minimal inhibitory concentration (MIC) [2] [µg/mL] | minimal inhibitory concentration (MIC) (S. marcescens GN6944) [µg/mL] | minimal inhibitory concentration (MIC) (S. aureus MF490) [µg/mL] | minimal inhibitory concentration (MIC) (S. aureus RN4220) [µg/mL] | minimal inhibitory concentration (MIC) (E. coli JM109/pMW218) [µg/mL] | minimal inhibitory concentration (MIC) (P. aeruginosa MSC01035) [µg/mL] | minimal inhibitory concentration (MIC) (P. aeruginosa PAO1) [µg/mL] | minimal inhibitory concentration (MIC) (S. marcescens TH-0447) [µg/mL] | minimal inhibitory concentration (MIC) [3] [µg/mL] | minimal inhibitory concentration (MIC) (S. aureus RN4220/pMS520) [µg/mL]
1 | CN[C@@H]1[C@@H](O[C@H]2O[C@H](CO)[C@@H](N)C[C@H]2O)O[C@H]2C[C@@H](N)[C@@H](O[C@H]3C[C@@H](O)[C@H](N)C[C@@H]3N)O[C@@H]2[C@@H]1O [Compound M7, 5,3″-dideoxyapramycin] | 1 (≈ 1.97 µM) | 4 (≈ 7.88 µM) | 16 (≈ 31.5 µM) | 4 (≈ 7.88 µM) | 1 (≈ 1.97 µM) | 4 (≈ 7.88 µM) | 4 (≈ 7.88 µM) | 2 (≈ 3.94 µM) | 0.5 (≈ 0.985 µM) | 4 (≈ 7.88 µM) | 4 (≈ 7.88 µM) | 8 (≈ 15.8 µM) | 8 (≈ 15.8 µM) | 1 (≈ 1.97 µM)
2 | CNC1C(OC2OC(CO)C(N)CC2O)OC2CC(N)C(OC3C(N)CC(N)C(O)C3O)OC2C1O (stereo not drawn) [Compound M9, 3″-deoxy-5-epiapramycin] | 1 (≈ 1.91 µM) | 4 (≈ 7.64 µM) | 8 (≈ 15.3 µM) | 4 (≈ 7.64 µM) | 1 (≈ 1.91 µM) | 4 (≈ 7.64 µM) | 4 (≈ 7.64 µM) | 1 (≈ 1.91 µM) | 1 (≈ 1.91 µM) | 4 (≈ 7.64 µM) | 2 (≈ 3.82 µM) | 4 (≈ 7.64 µM) | 4 (≈ 7.64 µM) | 2 (≈ 3.82 µM)
3 | CNC1C(OC2OC(CO)C(N)CC2O)OC2CC(N)C(OC3C(N)CC(N)C(O)C3F)OC2C1O (stereo not drawn) [Compound M10, 5,3″-dideoxy-5-epi-5-fluoroapramycin] | 1 (≈ 1.9 µM) | 4 (≈ 7.61 µM) | 8 (≈ 15.2 µM) | 4 (≈ 7.61 µM) | 1 (≈ 1.9 µM) | 4 (≈ 7.61 µM) | 8 (≈ 15.2 µM) | 2 (≈ 3.81 µM) | 0.5 (≈ 0.951 µM) | 4 (≈ 7.61 µM) | 4 (≈ 7.61 µM) | 8 (≈ 15.2 µM) | 8 (≈ 15.2 µM) | 2 (≈ 3.81 µM)
4 | CN[C@@H]1[C@@H](O[C@H]2O[C@H](CO)[C@@H](N)C[C@H]2O)O[C@H]2C[C@@H](N)[C@@H](O[C@@H]3[C@@H](N)C[C@@H](N)C[C@@H]3O)O[C@@H]2[C@@H]1O [Compound N5, 6,3″-dideoxy-5-epiapramycin] | 2 (≈ 3.94 µM) | 4 (≈ 7.88 µM) | 8 (≈ 15.8 µM) | 8 (≈ 15.8 µM) | 2 (≈ 3.94 µM) | 4 (≈ 7.88 µM) | 4 (≈ 7.88 µM) | 2 (≈ 3.94 µM) | 1 (≈ 1.97 µM) | 8 (≈ 15.8 µM) | 4 (≈ 7.88 µM) | 8 (≈ 15.8 µM) | 8 (≈ 15.8 µM) | 2 (≈ 3.94 µM)
5 | CNC1C(OC2OC(CO)C(N)CC2O)OC2CC(N)C(OC3CCC(N)CC3N)OC2C1O (stereo not drawn) [Compound N7, 5,6,3″-trideoxyapramycin] | 1 (≈ 2.03 µM) | 4 (≈ 8.14 µM) | 16 (≈ 32.5 µM) | 8 (≈ 16.3 µM) | 1 (≈ 2.03 µM) | 4 (≈ 8.14 µM) | 8 (≈ 16.3 µM) | 2 (≈ 4.07 µM) | 1 (≈ 2.03 µM) | 8 (≈ 16.3 µM) | 4 (≈ 8.14 µM) | 8 (≈ 16.3 µM) | 8 (≈ 16.3 µM) | 2 (≈ 4.07 µM)
6 | CNC1C(OC2OC(CO)C(N)CC2O)OC2CC(N)C(OC3C(N)CC(N)C(O)C3N)OC2C1O (stereo not drawn) [Compound N9, 5-amino-5,3″-dideoxy-5-epiapramycin] | 1 (≈ 1.91 µM) | 4 (≈ 7.65 µM) | 16 (≈ 30.6 µM) | 8 (≈ 15.3 µM) | 2 (≈ 3.83 µM) | 8 (≈ 15.3 µM) | 8 (≈ 15.3 µM) | 2 (≈ 3.83 µM) | 1 (≈ 1.91 µM) | 8 (≈ 15.3 µM) | 4 (≈ 7.65 µM) | 8 (≈ 15.3 µM) | 8 (≈ 15.3 µM) | 2 (≈ 3.83 µM)
7 | CN[C@@H]1[C@@H](O[C@@H]2C[C@H](O)[C@H](N)[C@@H](CO)O2)O[C@H]2C[C@@H](N)[C@@H](O[C@H]3[C@@H](F)[C@@H](O)[C@H](N)C[C@@H]3N)O[C@@H]2[C@@H]1O [Compound O5, 5,2″-dideoxy-5,3″-diepi-5-fluoroapramycin] | 0.5 (≈ 0.951 µM) | 2 (≈ 3.81 µM) | 8 (≈ 15.2 µM) | 4 (≈ 7.61 µM) | 1 (≈ 1.9 µM) | 2 (≈ 3.81 µM) | 4 (≈ 7.61 µM) | 1 (≈ 1.9 µM) | 0.5 (≈ 0.951 µM) | 4 (≈ 7.61 µM) | 2 (≈ 3.81 µM) | 4 (≈ 7.61 µM) | 4 (≈ 7.61 µM) | 1 (≈ 1.9 µM)
8 | CN[C@@H]1[C@@H](O[C@H]2O[C@H](CO)[C@@H](N)[C@@H](O)[C@H]2O)O[C@H]2C[C@@H](N)[C@@H](O[C@H]3[C@@H](O)[C@@H](O)[C@H](N)C[C@@H]3N)O[C@@H]2[C@@H]1O [Compound P4, 5,3″-diepiapramycin] | 2 (≈ 3.71 µM) | 4 (≈ 7.41 µM) | 16 (≈ 29.7 µM) | 4 (≈ 7.41 µM) | 2 (≈ 3.71 µM) | 8 (≈ 14.8 µM) | 4 (≈ 7.41 µM) | 2 (≈ 3.71 µM) | 2 (≈ 3.71 µM) | 8 (≈ 14.8 µM) | 4 (≈ 7.41 µM) | 8 (≈ 14.8 µM) | 8 (≈ 14.8 µM) | 2 (≈ 3.71 µM)
9 | CNC1C(OC2OC(C)C(N)C(O)C2O)OC2CC(N)C(OC3C(N)CC(N)CC3O)OC2C1O (stereo not drawn) [Compound Q4, 6,6″-dideoxy-5-epiapramycin] | 1 (≈ 1.97 µM) | 4 (≈ 7.88 µM) | 8 (≈ 15.8 µM) | 8 (≈ 15.8 µM) | 1 (≈ 1.97 µM) | 4 (≈ 7.88 µM) | 4 (≈ 7.88 µM) | 2 (≈ 3.94 µM) | 0.5 (≈ 0.985 µM) | 8 (≈ 15.8 µM) | 4 (≈ 7.88 µM) | 4 (≈ 7.88 µM) | 8 (≈ 15.8 µM) | 1 (≈ 1.97 µM)
